Experimental findings from ChEMBL document CHEMBL3046347, “Synthesis and biological evaluation of novel curcumin analogues as anti-inflammatory, anti-cancer and anti-oxidant agents” (Med Chem Res, 2012) are described below.

What is called inhibition is the share of the control response that was lost under treatment.

The nature of series [1]: Antioxidant activity assessed as reduction of potassium ferricynide at 1 mM after 10 min by spectrophotometric analysis. Type of series: functional. Further details: scale not given: the % may be the effect or the level left.
Series [2] is described as follows: Antioxidant activity assessed as hydroxyl radical scavenging activity at 1 mM by spectrophotometric analysis. The format is functional.
The nature of series [3]: Antioxidant activity assessed as reduction of potassium ferricynide at 1 uM after 10 min by spectrophotometric analysis. The format is functional. Details: scale not given: the % may be the effect or the level left.
Series [4] can be described thus: Antioxidant activity assessed as hydroxyl radical scavenging activity at 1 uM by spectrophotometric analysis. The format is functional.
In series [5] the test system is Radical scavenging activity. Put plainly: Antioxidant activity assessed as DPPH radical scavenging activity at 1 uM after 20 min by spectrophotometric analysis. The format is functional. (The DPPH test is a chemical assay of radical scavenging.)
Series [6] concerns ACHN. Put plainly: Cytotoxicity against Homo sapiens (human) ACHN cells at 10 uM after 48 hr by propidium iodide-based fluorometric assay. The format is functional. Conditions: read-out: GI.
Series [7] has as its system HCT-116. Put plainly: Cytotoxicity against Homo sapiens (human) HCT116 cells at 10 uM after 48 hr by propidium iodide-based fluorometric assay. The format is functional. Conditions: HCT-116, 48 h, read-out: GI.
In series [8] the test system is Calu-1. Put plainly: Cytotoxicity against Homo sapiens (human) Calu1 cells at 10 uM after 48 hr by propidium iodide-based fluorometric assay. Type of series: functional. The following applies: Calu-1, 48 h, read-out: GI.
A short description of series [9]: Cytotoxicity against Homo sapiens (human) H460 cells at 10 uM after 48 hr by propidium iodide-based fluorometric assay. The format is functional. Conditions: NCI-H460, 48 h, read-out: GI.
For series [10], the system named is PANC-1. Put plainly: Cytotoxicity against Homo sapiens (human) PANC1 cells at 10 uM after 48 hr by propidium iodide-based fluorometric assay. Type of series: functional. Conditions: PANC-1, 48 h, read-out: GI.
The target in series [11] is T1, Beta-glucuronidase (Homo sapiens) (UniProt P08236).
T1 sequence (whole entry): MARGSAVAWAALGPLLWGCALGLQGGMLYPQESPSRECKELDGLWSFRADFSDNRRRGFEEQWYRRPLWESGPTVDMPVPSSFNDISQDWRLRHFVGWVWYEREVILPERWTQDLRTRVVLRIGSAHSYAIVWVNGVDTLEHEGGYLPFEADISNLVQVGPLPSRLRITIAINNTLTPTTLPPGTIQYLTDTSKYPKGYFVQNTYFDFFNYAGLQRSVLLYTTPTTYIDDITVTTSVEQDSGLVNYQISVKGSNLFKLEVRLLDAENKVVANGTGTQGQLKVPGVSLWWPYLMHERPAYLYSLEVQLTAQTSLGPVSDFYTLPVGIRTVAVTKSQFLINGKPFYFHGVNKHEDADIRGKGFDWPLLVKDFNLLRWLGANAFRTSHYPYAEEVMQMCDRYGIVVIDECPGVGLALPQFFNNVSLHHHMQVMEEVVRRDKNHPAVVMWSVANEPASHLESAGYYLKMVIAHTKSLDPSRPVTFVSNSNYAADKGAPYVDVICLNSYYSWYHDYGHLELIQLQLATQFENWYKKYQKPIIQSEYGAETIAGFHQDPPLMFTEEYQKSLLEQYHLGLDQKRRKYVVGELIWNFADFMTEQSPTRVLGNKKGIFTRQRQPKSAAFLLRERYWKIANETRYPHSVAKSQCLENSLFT
Put plainly: Inhibition of beta-glucuronidase (unknown origin) using p-nitrophenyl-beta-D-glucopyranosiduronic acid as substrate at 1 uM after 30 min by spectrophotometric analysis.

In series [12] the target is Trypsin (Homo sapiens) (UniProt P07477+P07478+P35030). Put plainly: Inhibition of trypsin (unknown origin) using bovine serum albumin as substrate at 1 uM incubated for 20 min prior to substrate addition measured after 25 min by Lowry method. The format is protein assay.
In series [13] the target is T2, Prostaglandin G/H synthase 2 (Ovis aries) (UniProt P79208).
T2 sequence (whole entry): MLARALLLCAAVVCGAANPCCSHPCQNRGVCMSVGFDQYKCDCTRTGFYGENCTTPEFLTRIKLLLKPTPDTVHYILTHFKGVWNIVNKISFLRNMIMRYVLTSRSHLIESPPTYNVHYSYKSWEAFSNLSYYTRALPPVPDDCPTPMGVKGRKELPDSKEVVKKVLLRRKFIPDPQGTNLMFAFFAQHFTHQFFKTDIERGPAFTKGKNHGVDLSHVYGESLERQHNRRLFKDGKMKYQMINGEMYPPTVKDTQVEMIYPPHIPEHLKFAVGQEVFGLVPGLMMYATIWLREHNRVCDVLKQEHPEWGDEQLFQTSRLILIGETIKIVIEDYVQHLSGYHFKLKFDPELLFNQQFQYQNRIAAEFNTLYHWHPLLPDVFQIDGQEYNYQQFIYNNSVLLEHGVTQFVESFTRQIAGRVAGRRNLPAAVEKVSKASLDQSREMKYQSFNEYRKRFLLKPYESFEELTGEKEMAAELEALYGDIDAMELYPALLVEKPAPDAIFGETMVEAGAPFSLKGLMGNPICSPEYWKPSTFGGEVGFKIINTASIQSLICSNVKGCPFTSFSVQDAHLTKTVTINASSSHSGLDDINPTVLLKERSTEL
Put plainly: Inhibition of Ovis aries (sheep) COX2 at 1 uM after 5 min by colorimetric analysis.

Series [14] is described as follows: Cytotoxicity against Homo sapiens (human) […] cells at 10 uM. The format is cell-based.
In series [15] the test system is THP-1. Put plainly: Anti-inflammatory activity in Homo sapiens (human) THP1 cells assessed as inhibition of LPS-induced IL6 production at 10 uM incubated for 30 min prior to LPS-challenge measured after 24 hr by ELISA. The format is functional. Background: An ELISA detects its analyte on a solid surface through an enzyme-linked reagent.
Series [16] relates to THP-1. Put plainly: Anti-inflammatory activity in Homo sapiens (human) THP1 cells assessed as inhibition of LPS-induced TNFalpha production at 10 uM incubated for 30 min prior to LPS-challenge measured after 24 hr by ELISA. Type of series: functional.
The target in series [17] is T3, Prostaglandin G/H synthase 1 (Ovis aries) (UniProt P05979).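 Also: colorimetric read-out, measured after 5 min.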
T3 sequence (whole entry): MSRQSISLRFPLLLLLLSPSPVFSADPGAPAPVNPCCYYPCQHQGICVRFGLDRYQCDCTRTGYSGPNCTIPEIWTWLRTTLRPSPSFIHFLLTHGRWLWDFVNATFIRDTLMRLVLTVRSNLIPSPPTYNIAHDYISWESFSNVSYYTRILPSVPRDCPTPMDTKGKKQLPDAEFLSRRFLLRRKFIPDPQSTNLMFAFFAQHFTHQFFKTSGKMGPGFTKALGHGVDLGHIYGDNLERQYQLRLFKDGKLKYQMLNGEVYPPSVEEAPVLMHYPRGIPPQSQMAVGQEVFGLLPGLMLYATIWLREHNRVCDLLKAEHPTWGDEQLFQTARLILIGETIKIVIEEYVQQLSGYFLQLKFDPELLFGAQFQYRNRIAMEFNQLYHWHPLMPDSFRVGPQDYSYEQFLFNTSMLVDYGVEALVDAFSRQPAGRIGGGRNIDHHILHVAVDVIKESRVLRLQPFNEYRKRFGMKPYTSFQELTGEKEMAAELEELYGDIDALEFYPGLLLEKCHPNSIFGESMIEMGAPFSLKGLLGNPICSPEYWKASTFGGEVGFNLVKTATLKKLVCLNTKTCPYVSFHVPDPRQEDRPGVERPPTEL
The following applies: at 1 µM.
Description: Inhibition of Ovis aries (sheep) COX1 at 1 uM after 5 min by colorimetric analysis

Series [18] relates to ACHN. Put plainly: Cytotoxicity against Homo sapiens (human) ACHN cells at 500 nM after 48 hr by propidium iodide-based fluorometric assay. The format is functional. Conditions: read-out: GI.
Series [19] relates to HCT-116. Put plainly: Cytotoxicity against Homo sapiens (human) HCT116 cells at 500 nM after 48 hr by propidium iodide-based fluorometric assay. Type of series: functional. Conditions: HCT-116, 48 h, read-out: GI.
Series [20] deals with Calu-1. Put plainly: Cytotoxicity against Homo sapiens (human) Calu1 cells at 500 nM after 48 hr by propidium iodide-based fluorometric assay. Type of series: functional. Conditions: Calu-1, 48 h, read-out: GI.
The nature of series [21]: Cytotoxicity against Homo sapiens (human) H460 cells at 500 nM after 48 hr by propidium iodide-based fluorometric assay. Type of series: functional. The following applies: NCI-H460, 48 h, read-out: GI.
Series [22] relates to PANC-1. Put plainly: Cytotoxicity against Homo sapiens (human) PANC1 cells at 500 nM after 48 hr by propidium iodide-based fluorometric assay. The format is functional. Conditions: PANC-1, 48 h, read-out: GI.

Take `O=C1O[C@H]([C@@H](O)CO)C(O)=C1O`: the Activity in series [1] was 78.9%; in series [2] it was 45.9%.
Turning to `COc1cc(OC)c(/C=C/C(=O)c2cccc(NC(=O)c3ccccc3F)c2)c(OC)c1Br`, the Activity came out at 40.5% in [3], 43.2% in series [4], 42.9% in series [5] and 56% in series [14]. Moreover, the inhibition of growth at 10 µM was 66% in [6]; 66% in series [7]; 67% in series [8]; 52% in series [9]; 68% in series [10]. For the same molecule, the inhibition in [11] is 74.2%; in [12], 64.8%; in series [13], 79.3%; in [17], 44.8%. For the same molecule, the values for the inhibition at 10 µM in series [15] and in series [16] were 96% and 84%, respectively.
Consider `COc1cc(OC)c(/C=C/C(=O)c2cccc(NC(=O)c3ccccc3)c2)c(OC)c1Br`, for which the Activity is 46.6% in series [3], 54.1% in series [4], 49.4% in [5] and 65% in [14]. Further, the inhibition of growth at 10 µM was determined as 21% in [6]; 0% in [7]; 6% in series [8]; 14% in series [9]; 10% in series [10]. The inhibition in series [11] amounted to 49.6%; in [12] it was 58.1%; in series [13], 65.7%; in series [17] it was 51.9%. The values for the inhibition at 10 µM in series [15] and in [16] were 98% and 91%, respectively.
`Nc1ccn([C@@H]2O[C@H](CO)[C@@H](O)C2(F)F)c(=O)n1` [GEMCITABINE]: the inhibition of growth at 0.5 µM in [18] is 84%; in [19], 86%; in series [20] it was 87%; in series [21], 79%; in series [22], 78%.
On to `COc1cc(OC)c(/C=C/C(=O)c2cccc(NC(=O)c3ccc(C(C)(C)C)cc3)c2)c(OC)c1Br`, for which the Activity in series [3] came to 36.8%; in series [4], 27.3%; in [5], 43.6%; in series [14], 56%. The inhibition of growth at 10 µM in [6] amounted to 35%; in [7], 10%; in series [8], 32%; in series [9] it was 51%; in [10], 37%. The inhibition was determined as 82.5% in series [11], 69.6% in [12], 85.8% in series [13] and 64.6% in series [17]. Further, the values for the inhibition at 10 µM in series [15] and in [16] were 96% and 83%, respectively.
For the molecule `COc1cc(OC)c(/C=C/C(=O)c2cccc(NC(=O)c3ccc(F)cc3)c2)c(OC)c1Br`, the Activity in [3] came to 43.9%; in series [4], 33.4%; in [5] it was 44.3%; in series [14] it was 49%. Also, the inhibition of growth at 10 µM in series [6] came to 69%; in [7] it was 64%; in series [8], 60%; in series [9] it was 62%; in series [10], 66%. The inhibition in [11] worked out at 79.4%; in series [12] it was 72.9%; in series [13] it was 83.3%; in [17], 58.9%. For the same molecule, the inhibition at 10 µM in series [15] came to 97%; in [16] it was 85%.
As to `COc1cc(OC)c(/C=C/C(=O)c2cccc(NC(=O)c3cccc(Br)c3)c2)c(OC)c1Br`, the Activity in series [3] was determined as 39.7%; in [4] it was 23.6%; in [5] it was 42.6%; in series [14], 31%. Also, the inhibition of growth at 10 µM is 6% in series [6]; 0% in series [7]; 0% in series [8]; 6% in series [9]; 0% in series [10]. Moreover, the inhibition amounted to 84.7% in series [11], 66.5% in [12], 88.4% in series [13] and 41.7% in [17]. The figures for the inhibition at 10 µM in series [15] and in series [16] were 75% and 4%, respectively.
In the case of `COc1cc(OC)c(/C=C/C(=O)c2cccc(NC(=O)c3cccc(C)c3)c2)c(OC)c1Br`, the Activity in series [3] is 29.2%; in series [4], 38.3%; in series [5], 36.7%; in series [14], 56%. Besides, the inhibition of growth at 10 µM in series [6] came out at 28%; in [7], 30%; in series [8], 22%; in series [9], 32%; in series [10], 23%. Also, the inhibition in [11] came to 66.9%; in series [12] it was 51.6%; in [13] it was 48.2%; in [17] it was 24.2%. The results for the inhibition at 10 µM in series [15] and in series [16] were 97% and 87%, respectively.
